The subject of assay [1] is grass pollen allergic donor derived TCL-03 lines. The assay can be described thus: Extended cross-reactivity study, proliferation on TCL03 DK1+DK2 (Study XR2), scoring. In kind it is cell-based, human. The arrangement: Cross-reactivity score: scale not given here. The note with it: for cross-reactivity of homologue / cross-reactivity score of homologue: 2 μg/ml, 20 donors; for cross-reactivity score of homologue: score 0 to 7.

The test system of assay [2] is allergen specific T cells. The assay can be described thus: T cell proliferation assay (72 h) on donor derived T cell lines (TCL02/TCL03). The conditions noted are these: 2 μg/ml, TCL-02 DK-2, 21 donors. Format: cell-based, human. The source says: Isolated PBMCs (peripheral blood mononuclear cells) obtained from the donors described in Example 2 were CD8 depleted and the T cell lines were established by stimulating the cultures with nPhl p1, mix of nPhl p 2 and […] 5 and […] established for each of the donors tested by stimulating with the mixture of above listed allergens. Grass allergic donors were recruited (cohort DK1 including 30 grass allergic individuals, DK2 including 24 grass allergic individuals and US1 including 15 grass allergic individuals). PBMCs were isolated from freshly drawn heparinized blood by gradient centrifugation on lymphoprep (Nycomed, Norway), washed twice and re-suspended in RPMI 1640 medium with HEPES and ultraglutamine (Cambrex, Belgium) supplemented with 5% v/v human AB-serum (Cambrex, Belgium), 100 units/ml penicillin, and 0.1 mg/ml streptomycin (Sigma, St Louis, USA) (referred to as 5% AB-medium). Aliquots of the isolated PBMCs were frozen and were thawed later to stimulate the T cell lines. Additionally either fresh or thawed PBMCs were used as antigen presenting cells (APCs) in the proliferation assay as described later. In some cases the PBMCs were freezed at this stage and thawed later on to continue the experiment as described in the following. The isolated PBMCs (fresh or thawed) were CD8 depleted by MACS magnetic depletion according to the manufacturer's instructions (Miltenyi Biotec, Bergisch Gladbach, Germany). On day 0 the CD8-depleted PBMCs (2×10^6/ml) were stimulated in 1 ml bulk cultures in AB medium in 24 well plates (Nunc, Denmark) with the mixture of natural allergens: nPhl p 1 (0.5 μg/ml), mix of […]). […] On day 14 cells were harvested to obtain T cell line generation 01 (referred to as TCL01). Restimulation of T cell lines were performed in AB-medium with the thawed autologous PBMCs (10^6/well, irradiated 2500 Rad), the above mixture of natural allergens (concentration as mentioned above), and PHA-P (0.5 μg/ml, Difco, Detroit, Mich., USA). rIL-2 was added at day 17, 18 and 19. On day 24 cells were harvested to obtain T cell line generation 02 (referred as TCL02). T cells were isolated, washed, counted and used for T cell proliferation assay as described later. Remaining cells were frozen for later thawing and re-stimulations. The T cell line generation 2 (TCL02) were thawed and were re-stimulated with allogeneic Epstein Bar Virus transformed lymphoblastoid cell lines (EBV) B cells (JY cells, 10^5/well, irradiated 3500 Rad), allogeneic PBMCs (10^6/well, irradiated 2500 Rad), and 0.5 μg/ml PHA-P and subsequent addition of rIL-2 at days 3-5 to generate T cell line generation 03 (referred to as TCL03). […] To summarize ELISpot experiments were carried out at day 14 (with TCL01) and proliferation assay on either day 24 (with TCL02) or at day 34 (with TCL03). […] To ensure that all T cell epitopes regions from the major and intermediate grass allergens of the grass were identified T cell screening was carried out with either overlapping peptides or selected peptides. […] These were overlapping 20-mer peptides spanning the entire full length amino acid sequence of […] and selected high binder peptides from Phl p 4 were tested. Additionally 21, 15 mer peptides were tested which were derived from various group 1 and 5 allergens. Also, 67 peptides from homologous grass allergens were tested. Finally some reference peptides and mixes thereof were also tested. The 15-mer peptides were selected on the basis of predicted and measured promiscuous HLA binding and of sequence homology between known proteins sequences from the relevant pooideae grasses and the Bermuda grass. […] To get comprehensive data from all the donors the peptides were tested in both Fluorospot/Elispot (day 14, TCL01) and proliferation (day 24, TCL02).

Where [3] appears, read: homologue of peptide 207 (Phl p 1), Table 43.
The mark [4] stands for this setting: homologue of peptide 205 (Phl p 1), Table 41.
[5] abbreviates: homologue of peptide 211 (Phl p 1), Table 44.
The mark [6] stands for this setting: homologue of peptide 206 (Phl p 1), Table 42.
Setting [7] is: homologue of peptide 238 (Phl p 5), Table 48.
Where [8] appears, read: homologue of peptide 285, Table 50.
Where [9] appears, read: homologue of peptide 217 (Phl p 3), Table 45.

Where no end group is shown, it is not given here.

As for YGIFDLEFRRVRSKYQGGQK-OH [compound 384], in assay [1] (setting [3]), the Cross-reactivity score was 0.5.
With YHFDLAGTAFGAMAKKGEEE-OH [compound 375], in assay [1], the cross-reactivity of homologue result was “very high reactivity”. The same molecule displayed a Cross-reactivity score in assay [1] (setting [4]) of 7.
On to WGAIWRVDTPDKLTGPFTVR-OH [compound 392], for which, in assay [1], the cross-reactivity of homologue result is given as “considerable cross-reactivity”. Further, the Cross-reactivity score in assay [1] (setting [5]) turned out to be 5.
In turn, YHFDLSGKAFGAMAKKGEEQ-OH [compound 374] registered a Cross-reactivity score in assay [1] (setting [4]) of 3.
As for WGAIWRKDSDKPIKFPVTVQ-OH [compound 396], the Cross-reactivity score in assay [1] (setting [5]) came to 0.5.
As to YHFDLSGHAFGSMAKKGEEE-OH [compound 373], the cross-reactivity of homologue result in assay [1] was “very high reactivity”. In assay [1] (setting [4]), this molecule registered a Cross-reactivity score of 6.
For `CC[C@H](C)[C@H](NC(=O)[C@H](Cc1ccccc1)NC(=O)[C@@H](N)CCCCN)C(=O)N1CCC[C@H]1C(=O)N[C@@H](C)C(=O)N[C@@H](CC(C)C)C(=O)N[C@@H](CCC(=O)O)C(=O)N[C@@H](C)C(=O)N[C@@H](C)C(=O)N[C@H](C(=O)N[C@@H](CCCCN)C(=O)N[C@@H](CCC(N)=O)C(=O)N[C@@H](CO)C(=O)N[C@@H](Cc1ccc(O)cc1)C(=O)N[C@@H](C)C(=O)N[C@@H](C)C(=O)N[C@H](C(=O)N[C@H](C(=O)N[C@@H](C)C(=O)N[C@H](C(=O)O)[C@@H](C)O)C(C)C)[C@@H](C)O)C(C)C` [compound 409], in assay [1] (homologue of peptide 239 (Phl p 5), Table 49), the Cross-reactivity score was determined as 7.
For GEEQKLRSAGELELQFRRVK-OH [compound 377], the Cross-reactivity score in assay [1] (setting [6]) stood at 2.
Take ERDFLTSLTKDIPPRQLYAK-OH [compound 398]: in assay [1], the “cross-reactivity score of homologue” value was found to be 1. The Cross-reactivity score in assay [1] (homologue of peptide 222 (Phl p 4), Table 46) came out at 1.
In assay [1] (setting [6]), GLNDKLRHYGIFDLEFRRVR-OH [compound 378] gave a Cross-reactivity score of 0.
Take YHFDLSGHAFGSMAKKGEEQ-OH [compound 372]: the cross-reactivity of homologue result in assay [1] is listed as “very high reactivity”. In assay [1] (setting [4]), this molecule gave a Cross-reactivity score of 7.
In assay [1] (homologue of peptide 235 (Phl p 5), Table 53), VDKIDAAYKIAATAANAAPA-OH [compound 399] yielded a Cross-reactivity score of 5.
GEEQKLRSAGELELKFRRVK-OH [compound 380] displayed a Cross-reactivity score in assay [1] (setting [6]) of 0.5.
On to GEEDKLRKAGELMLQFRRVK-OH [compound 376], for which the Cross-reactivity score in assay [1] (setting [6]) is 0.
For YHFDLSGKAFGAMAKKGEED-OH [compound 371], the Cross-reactivity score in assay [1] (setting [4]) was found to be 2.
As for WGAIWRIDPPKPLKGPFTIR-OH [compound 391], the Cross-reactivity score in assay [1] (setting [5]) came to 0.5.
In assay [1] (setting [7]), STGGAYESYKFIPTLEAAVK-OH [compound 404] showed a Cross-reactivity score of 5.
With AGELELKFRRVKSEYPEGTK-OH [compound 385], the Cross-reactivity score in assay [1] (setting [3]) is on record as 1.
In assay [1] (setting [5]), WGAIWRMDTPKALVPPFSIR-OH [compound 394] came in with a Cross-reactivity score of 1.
Consider STGGAYQSYKFIPALEAAVK-OH [compound 406], for which, in assay [1] (setting [7]), the Cross-reactivity score is given as 4.
For AGELELQFRRVKSKYPDGTK-OH [compound 383], the cross-reactivity of homologue result in assay [1] is given as “considerable cross-reactivity”. In assay [1] (setting [3]), the Cross-reactivity score is reported as 6.
In turn, GEEENVRGAGELELQFRRVK-OH [compound 379] had a Cross-reactivity score in assay [1] (setting [6]) of 1.
Regarding AGELTLQFRRVKSKYPSGTK-OH [compound 318], the Cross-reactivity score in assay [1] (setting [3]) amounted to 0.
AYESYKFIPTLEAAVKQAYA-OH [compound 413]: the Cross-reactivity score in assay [1] (setting [8]) is on record as 6.
With AYQSYKFIPALEAAVKQSYA-OH [compound 416], the “cross-reactivity score of homologue” value in assay [1] turned out to be 1. In assay [1] (setting [8]), the Cross-reactivity score stood at 1.
Turning to WGAVWRIDTPDKLTGPFTVR-OH [compound 393], in assay [1], the cross-reactivity of homologue result is on record as “considerable cross-reactivity”. The molecule further showed a Cross-reactivity score in assay [1] (setting [5]) of 4.
For `CC[C@H](C)[C@H](NC(=O)[C@H](CC(N)=O)NC(=O)[C@H](CC(C)C)NC(=O)[C@@H](NC(=O)[C@H](CC(C)C)NC(=O)[C@@H](NC(=O)[C@H](CCCCN)NC(=O)[C@H](C)NC(=O)[C@H](CC(=O)O)NC(=O)[C@H](CO)NC(=O)CN)[C@@H](C)O)C(C)C)C(=O)N[C@@H](CCCCN)C(=O)N[C@@H](Cc1ccc(O)cc1)C(=O)N[C@H](C(=O)N[C@@H](CCCNC(=N)N)C(=O)N1CCC[C@H]1C(=O)NCC(=O)N[C@@H](CC(=O)O)C(=O)N[C@H](C(=O)N[C@@H](CC(C)C)C(=O)O)[C@@H](C)O)[C@@H](C)O` [compound 328], the cross-reactivity of homologue entry in assay [1] was “considerable cross-reactivity”. Further, the Cross-reactivity score in assay [1] (setting [9]) was 5.
Take AGELELQFRRVKSKYPEGTK-OH [compound 382]: in assay [1], the cross-reactivity of homologue result is on record as “considerable cross-reactivity”. Also, in assay [1] (setting [3]), the Cross-reactivity score is recorded as 3.
Turning to TDMNYEQIAAYHFDLAGTAF-OH [compound 370], in assay [1] (homologue of peptide 204 (Phl p 1), Table 40), the Cross-reactivity score worked out at 2.
As to GSDPKKLVLDIKYTRPGDTL-OH [compound 397], the Cross-reactivity score in assay [1] (setting [9]) was determined as 1.
Turning to WGSIWRVDTPDKLTGPFTVR-OH [compound 395], the cross-reactivity of homologue entry in assay [1] is “considerable cross-reactivity”. This molecule displayed a Cross-reactivity score in assay [1] (setting [5]) of 3.
`CC[C@H](C)[C@H](NC(=O)[C@H](Cc1ccccc1)NC(=O)[C@H](CCCCN)NC(=O)[C@H](Cc1ccc(O)cc1)NC(=O)[C@@H](NC(=O)[C@H](CCC(=O)O)NC(=O)[C@H](Cc1ccc(O)cc1)NC(=O)[C@H](C)NC(=O)CNC(=O)[C@H](C)NC(=O)[C@@H](NC(=O)[C@@H](N)CO)[C@@H](C)O)[C@@H](C)O)C(=O)N1CCC[C@H]1C(=O)N[C@@H](CO)C(=O)N[C@@H](CC(C)C)C(=O)N[C@@H](CCC(=O)O)C(=O)N[C@@H](C)C(=O)N[C@@H](C)C(=O)N[C@H](C(=O)N[C@@H](CCCCN)C(=O)O)C(C)C` [compound 363] registered a Cross-reactivity score in assay [1] (setting [7]) of 5.
In assay [1] (setting [6]), GEEEKLRKAGIIDMKFRRVK-OH [compound 381] showed a Cross-reactivity score of 0.5.
As for `CC[C@H](C)[C@H](NC(=O)[C@@H](NC(=O)[C@H](CCCNC(=N)N)NC(=O)[C@H](CC(C)C)NC(=O)[C@H](C)NC(=O)[C@H](CCC(=O)O)NC(=O)[C@@H](NC(=O)[C@H](CC(C)C)NC(=O)[C@@H](NC(=O)[C@H](C)NC(=O)[C@@H](NC(=O)[C@H](Cc1ccc(O)cc1)NC(=O)[C@H](C)NC(=O)[C@H](CC(=O)O)NC(=O)[C@H](Cc1ccc(O)cc1)NC(=O)[C@H](CCCCN)NC(=O)[C@H](C)NC(=O)[C@@H](N)CCC(=O)O)C(C)C)[C@@H](C)O)[C@@H](C)O)C(C)C)C(=O)N[C@@H](C)C(=O)NCC(=O)O` [compound 345], the “donor coverage of homologue peptide compared with native Phleum peptide” value in assay [2] is given as “comparable donor coverage”.
The same measure, in the same setting: in the case of DKYKTFVETFGTATNKAFVE-OH [compound 343] it was “better donor coverage than the native peptides”.
Consider VDKIDAAYKIAATAANAAPAN-OH [compound 417], for which the Cross-reactivity score in assay [1] (homologue of peptide 286 (Phl p 5), Table 52) worked out at 7.

The values above are taken from patent US20180207228A1, “PEPTIDE COMBINATIONS AND USES THEREOF FOR TREATING GRASS ALLERGY” (ALK-Abelló A/S, priority 2015, published 2018).
